Measured values from patent publication US5279811A, “Ester-substituted diaminedithiols and radiolabeled complexes thereof” (The Du Pont Merck Pharmaceutical Company, priority 1988, dated 1994).

Test: solubility
Format: physicochemical
Details: all solvents except aqueous base

SMILES: O=C(O)C(CS)NCCNC(CS)C(=O)O [N,N'-1,2-ethylenediylbis-L-cysteine]
- solubility: insoluble in all solvents except aqueous base
